Some results are limits rather than exact numbers.

The first assay has as its system purified human Hsp90. The assay can be described thus: Binding Assay: fluorescence polarization with BODIPY-labeled geldanamycin. Conditions: 5 μM compound, BODIPY-GM 10 nM, Hsp90 30 nM. The gist of the method:
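Fluorescence polarization competition with BODIPY-geldanamycin (10 nM final) and human Hsp90 (30 nM final) in HEPES-KOH pH 7.3 buffer with molybdate, NP-40, DTT; 2% DMSO, overnight at room temperature. Read 485/530 nm; percent inhibition from mP normalized to DMSO controls, fluorescent-compound points excluded.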
In general terms: Fluorescence polarisation rises when a labelled molecule tumbles more slowly, as on binding a larger partner.
A word on the % Inhibition: it is the change of the read-out against control, counted positive when it falls. The low end stands for a weak effect, the high end for a strong effect. For the compound `Nc1ncn(CCC2CCN(C(=O)C3CC3(F)F)CC2)c2nc(Sc3cc4c(cc3Br)OCO4)nc1-2` (stereo not shown) [Example 525, 8-[(6-Bromo-1,3-benzodioxol-5-yl)thio]-3-(2-{1-[(2,2-difluorocyclopropyl)carbonyl]piperidin-4-yl}ethyl)-3 H-purin-6-amine], the “% Inhibition at 5 μM Compound Concentration” value is reported as 13.00%.

`CC(C)(C)NS(=O)(=O)c1ccc(CCn2cnc(N)c3nc(Sc4cc5c(cc4Br)OCO5)nc2-3)cc1` [Example 274, 4-(2-{6-Amino-8-[(6-bromo-1,3-benzodioxol-5-yl)thio]-3H-purin-3-yl}ethyl) N-(tert-butyl)benzenesulfonamide]: the “% Inhibition at 5 μM Compound Concentration” value was 0.0%. Still for that read-out and setting: with `COc1ccc(OC)c(Sc2nc3c(N)ncn(CCN4CCOCC4)c-3n2)c1` [Example 636, 8-[(2,5-Dimethoxyphenyl)thio]-3-(2-morpholin-4-ylethyl)-3 H-purin-6-amine] the figure was 25.00%; with `Cc1cc(C)c(CCn2cnc(N)c3nc(Sc4cc5c(cc4Br)OCO5)nc2-3)c(C)c1` [Example 94, 8-(6-bromo-benzo[1,3]dioxol-5-ylsulfanyl)-3-[2-(2,4,6-trimethyl-phenyl)-ethyl]-3H-purin-6-ylamine], 0%. The same measure, in the same setting: with `COc1ccc(OC)c(Sc2nc3c(N)ncn(CCC4CCNCC4)c-3n2)c1` [Example 467, 8-[(2,5-Dimethoxyphenyl)thio]-3-(2-piperidin-4-ylethyl)-3 H-purin-6-amine] the figure was 0%; with `COc1ccc(CN2CCC(CCn3cnc(N)c4nc(Sc5cc6c(cc5Br)OCO6)nc3-4)CC2)cc1` [Example 595, 8-[(6-Bromo-1,3-benzodioxol-5-yl)thio]-3-{2-[1-(4-methoxybenzyl)piperidin-4-yl]ethyl}-3 H-purin-6-amine], 43.00%; with `COc1ccc(OC)c(Sc2nc3c(N)ncn(CCc4cccc(F)c4F)c-3n2)c1` [Example 146, 3-[2-(2,3-difluoro-phenyl)-ethyl]-8-(2,5-dimethoxy-phenylsulfanyl)-3H-purin-6-ylamine], 0%. Still for that read-out and setting: with `COc1ccc(OC)c(Sc2nc3c(N)ncn(CCn4cccc4)c-3n2)c1` [Example 66, 8-(2,5-dimethoxy-phenylsulfanyl)-3-(2-pyrrol-1-yl-ethyl)-3H-purin-6-ylamine] the figure was 5%.

The assay is the same for the next values; noted with them: BODIPY-GM 10 nM, Hsp90 30 nM.
Usually IC50 stands for the point on the concentration scale where inhibition reaches its midpoint. Low readings indicate greater potency in that assay, high ones weaker potency in that assay. The compound `CC(C)[C@@H]1C[C@H](CCn2c(Sc3cc4c(cc3Br)OCO4)nc3c(N)ncnc32)CCN1` (relative stereo) [Example 480, 8-[(6-bromo-1,3-benzodioxol-5-yl)thio]-9-{2-[cis-2-isopropylpiperidin-4-yl]ethyl}-9 H-purin-6-amine] had a half-inhibitory concentration (IC50) of 160 nM.

For the compound `COc1cc(Br)c(Sc2nc3c(N)ncnc3n2CCC2CCN(C(C)=O)CC2)cc1OC` [Example 565, 9-[2-(1-Acetylpiperidin-4-yl)ethyl]-8-[(2-bromo-4,5-dimethoxyphenyl)thio]-9 H-purin-6-], the IC50 is > 5000 nM. The compound `Nc1ncnc2c1nc(Sc1cc3c(cc1Br)OCO3)n2CCC(N)C1CCCC1` (stereo not shown) [Example 691, 9-(3-Amino-3-cyclopentyl-propyl)-8-(6-bromo-benzo[1,3]dioxol-5-ylsulfanyl)-9H-purin-6-ylamine] displayed an IC50 of 125 nM.

With `C[C@@H](NC(=O)OC(C)(C)C)C(=O)N1CCC[C@@H](CCn2c(Sc3cc4c(cc3Br)OCO4)nc3c(N)ncnc32)C1` [Example 734, tert-Butyl{(1R)-2-[(3S)-3-(2-{6-amino-8-[(6-bromo-1,3-benzodioxol-5-yl)thio]-9H-purin-9-yl}ethyl)piperidin-1-yl]-1-methyl-2-oxoethyl}carbamate], the IC50 was > 2000 nM. On the same count and under the same terms, with `COc1ccc(OC)c(Sc2nc3c(N)ncnc3n2CCc2ccc(C)cc2)c1` [Example 23, 8-(2,5-Dimethoxy-phenylsulfanyl)-9-(2-p-tolyl-ethyl)-9H-purin-6-ylamine] the figure was > 10000 nM; with `C[C@H](O)C(=O)N1CCC(CCn2c(Sc3cc4c(cc3Br)OCO4)nc3c(N)ncnc32)CC1` [Example 757, (2S)-1-[4-(2-{6-amino-8-[(6-bromo-1,3-benzodioxol-5-yl)thio]-9H-purin-9-yl}ethyl)piperidin-1-yl]-1-oxopropan-2-ol], 205 nM. For `Nc1ncnc2c1nc(Sc1cc3c(cc1Br)OCO3)n2CCc1ccc(-c2ccccc2)cc1` [Example 171, 9-(2-Biphenyl-4-yl-ethyl)-8-(6-bromo-benzo[1,3]dioxol-5-ylsulfanyl)-9H-purin-6-ylamine], the 50% inhibitory concentration (IC50) was > 25000 nM. Consider `CC(C)(C)NC(=O)N1CCCC(CCn2c(Sc3cc4c(cc3Br)OCO4)nc3c(N)ncnc32)C1` (stereo not shown) [Example 437, 3-(2-{6-Amino-8-[(6-bromo-1,3-benzodioxol-5-yl)thio]-9H-purin-9-yl}ethyl)-N-(tert-butyl)piperidine-1-carboxamide], for which the concentration for half-maximal inhibition (IC50) is 390 nM. On to `Nc1ncnc2c1nc(Sc1cc3c(cc1Br)OCO3)n2CCC12CC3CC(CC(C3)C1)C2` [Example 356, 9-[2-(1-Adamantyl)ethyl]-8-[(6-bromo-1,3-benzodioxol-5-yl)thio]-9H-purin-6-amine], for which the 50% inhibitory concentration (IC50) is > 25000 nM. For the compound `CC(=O)N1CCC(CCn2c(Sc3nc4cc(Cl)ccc4s3)nc3c(N)ncnc32)CC1` [Example 656, 9-[2-(1-Acetylpiperidin-4-yl)ethyl]-8-[(5-chloro-1,3-benzothiazol-2-yl)thio]-9H-purin-6-amine], the 50% inhibitory concentration (IC50) was > 5000 nM.

Turning to `COc1ccc(C)cc1Sc1nc2c(N)ncnc2n1CCc1ccccc1` [Example 314, 8-[(2-Methoxy-5-methylphenyl)thio]-9-(2-phenylethyl)-9H-purin-6-amine], the IC50 turned out to be 6800 nM. As to `CC(C)(C)OC(=O)N1CCC[C@H]1C(=O)N1CCC(CCn2c(Sc3cc4c(cc3Br)OCO4)nc3c(N)ncnc32)CC1` [Example 730, tert-Butyl(2S)-2-{[4-(2-{6-amino-8-[(6-bromo-1,3-benzodioxol-5-yl)thio]-9H-purin-9-yl}ethyl)piperidin-1-yl]carbonyl}pyrrolidine-1-carboxylate], the half-inhibitory concentration (IC50) is > 5000 nM. Regarding `COc1ccc(OC)c(Sc2nc3c(N)ncnc3n2CCN2C(=O)CCCC2=O)c1` [Example 485, 1-(2-{6-Amino-8-[(2,5-dimethoxyphenyl)thio]-9H-purin-9-yl}ethyl)piperidine-2,6-dione], the 50% inhibitory concentration (IC50) is 1000 nM. Turning to `CC(=O)N1CCC(CCn2cnc(N)c3nc(Sc4cc5c(cc4C#N)OCO5)nc2-3)CC1` [Example 621, 6-({3-[2-(1-Acetylpiperidin-4-yl)ethyl]-6-amino-3 H-purin-8-yl}thio)-1,3-benzodioxole-5-carbonitrile], the concentration for half-maximal inhibition (IC50) was > 5000 nM. On the same count and under the same terms, with `CC(C)C(Cn1c(Sc2cc3c(cc2Br)OCO3)nc2c(N)ncnc21)c1ccccc1` (stereo not shown) [Example 126, 8-(6-Bromo-benzo[1,3]dioxol-5-ylsulfanyl)-9-(3-methyl-2-phenyl-butyl)-9H-purin-6-ylamine] the figure was 300 nM; with `COc1ccc(CCn2c(Sc3cc(OC)ccc3OC)nc3c(N)ncnc32)cc1` [Example 247, 8-[(2,5-Dimethoxyphenyl)thio]-9-[2-(4-methoxyphenyl)ethyl]-9H-purin-6-amine], 3000 nM; with `CCOc1cc(CCn2c(Sc3cc(OC)ccc3OC)nc3c(N)ncnc32)ccc1OC` [Example 111, 8-(2,5-Dimethoxy-phenylsulfanyl)-9-[2-(3-ethoxy-4-methoxy-phenyl)-ethyl]-9H-purin-6-ylamine], 10000 nM.

Source of the values: patent publication US7595401B2, “Therapeutic compounds and their use in cancer” (Myriad Pharmaceuticals, Inc., priority 2006, dated 2009).
